Experimental data: patent publication US9994546B2, “Cyclopropylamines as LSD1 inhibitors” (Incyte Corporation, priority 2014, dated 2018)

Molecular target: LSD-1 enzyme (Homo sapiens (Human), UniProt O60341)
Assay: LANCE LSD1/KDM1A demethylase assay (LSD1 histone demethylase biochemical assay)
Conditions: 1 nM LSD-1 enzyme, 1 hour preincubation at 25° C., 0.4 μM biotin-labeled Histone H3 peptide substrate
Method: LANCE LSD1/KDM1A demethylase assay—10 μL of 1 nM LSD-1 enzyme (ENZO BML-SE544-0050) in the assay buffer (50 mM Tris, pH 7.5, 0.01% Tween-20, 25 mM NaCl, 5 mM DTT) were preincubated for 1 hour at 25° C. with 0.8 μL compound/DMSO dotted in black 384 well polystyrene plates. […] After stopping the reactions plates were incubated for 30 minutes and read on a PHERAstar FS plate reader (BMG Labtech).

Row | SMILES | IC50 [nM]
1 | N#CCC1(N2CCC(CN[C@@H]3C[C@H]3c3ccccc3)CC2)CN(C(=O)c2cccc(F)c2)C1 (relative stereo) [Example 47, [1-(3-Fluorobenzoyl)-3-(4-{[(trans-2-phenylcyclopropyl)amino]methyl}piperidin-1-yl)azetidin-3-yl]acetonitrile] | ≤ 100
2 | N#CCC1(N2CCC(CN[C@@H]3C[C@H]3c3ccccc3)CC2)CN(C(=O)c2ccc(F)cc2)C1 (relative stereo) [Example 48, [1-(4-Fluorobenzoyl)-3-(4-{[(trans-2-phenylcyclopropyl)amino]methyl}piperidin-1-yl)azetidin-3-yl]acetonitrile] | ≤ 100
3 | CN1CC(CC#N)(N2CCC(CN[C@@H]3C[C@H]3c3ccccc3)CC2)C1 (relative stereo) [Example 49, [1-Methyl-3-(4-{[(trans-2-phenylcyclopropyl)amino]methyl}piperidin-1-yl)azetidin-3-yl]acetonitrile] | ≤ 100
4 | O=C(O)CC1(N2CCC(CN[C@@H]3C[C@H]3c3ccccc3)CC2)CNC1 (relative stereo) [Example 50, [3-(4-{[(trans-2-Phenylcyclopropyl)amino]methyl}piperidin-1-yl)azetidin-3-yl]acetic acid] | ≤ 100
5 | CNC(=O)CC1(N2CCC(CN[C@@H]3C[C@H]3c3ccccc3)CC2)CNC1 (relative stereo) [Example 51, N-Methyl-2-(3-(4-((trans-2-phenylcyclopropylamino)methyl)piperidin-1-yl)azetidin-3-yl)acetamide] | ≤ 100
6 | CN(C)C(=O)CC1(N2CCC(CN[C@@H]3C[C@H]3c3ccccc3)CC2)CNC1 (relative stereo) [Example 52, N,N-Dimethyl-2-(3-(4-((trans-2-phenylcyclopropylamino)methyl)piperidin-1-yl)azetidin-3-yl)acetamide] | ≤ 100
7 | C[C@H](NC(=O)c1cc(F)c(N2CC(CC#N)(N3CC(CNC4CC4c4ccccc4)C3)C2)cc1F)C(F)(F)F (stereo partly drawn) [Example 27, 4-(3′-(Cyanomethyl)-3-{[(trans-2-phenylcyclopropyl)amino]methyl}-1,3′-biazetidin-1′-yl)-2,5-difluoro-N-[(1S)-2,2,2-trifluoro-1-methylethyl]benzamide] | ≤ 100
8 | N#CC1(c2ccccc2)CCC(N2CC(CNC3CC3c3ccccc3)C2)CC1 (stereo not drawn) [Example 30, 1-Phenyl-4-(3-{[(trans-2-phenylcyclopropyl)amino]methyl}azetidin-1-yl)cyclohexanecarbonitrile] | ≤ 100
9 | O=C(O)CC1(N2CCC(CN[C@@H]3C[C@H]3c3ccccc3)(Cc3ccc(F)cc3)CC2)CCC1 [Example 53, {1-[4-(4-fluorobenzyl)-4-({[(1R,2S)-2-phenylcyclopropyl]amino}methyl)piperidin-1-yl]cyclobutyl}acetic acid] | ≤ 100
10 | COCC1(CN[C@@H]2C[C@H]2c2ccccc2)CCN(C2(CC(=O)O)CCC2)CC1 [Example 54, {1-[4-(methoxymethyl)-4-({[(1R,2S)-2-phenylcyclopropyl]amino}methyl)piperidin-1-yl]cyclobutyl}acetic acid] | ≤ 100
11 | CC1(CN[C@@H]2C[C@H]2c2ccccc2)CCN(C2(CC(=O)O)CCC2)CC1 [Example 55, {1-[4-methyl-4-({[(1R,2S)-2-phenylcyclopropyl]amino}methyl)piperidin-1-yl]cyclobutyl}acetic acid] | ≤ 100
12 | CN(C)C(=O)CC1(N2CCC(C)(CN[C@@H]3C[C@H]3c3ccccc3)CC2)CCC1 [Example 56, N,N-dimethyl-2-{1-[4-methyl-4-({[(1R,2S)-2-phenylcyclopropyl]amino}methyl)piperidin-1-yl]cyclobutyl}acetamide] | ≤ 100
13 | CNC(=O)CC1(N2CCC(C)(CN[C@@H]3C[C@H]3c3ccccc3)CC2)CCC1 [Example 57, N-methyl-2-{1-[4-methyl-4-({[(1R,2S)-2-phenylcyclopropyl]amino}methyl)piperidin-1-yl]cyclobutyl}acetamide] | ≤ 100
14 | CS(=O)(=O)N1CC(CC#N)(N2CCC(N[C@@H]3C[C@H]3c3ccccc3)CC2)C1 [Example 58, [1-(methylsulfonyl)-3-(4-{[(1R,2S)-2-phenylcyclopropyl]amino}piperidin-1-yl)azetidin-3-yl]acetonitrile] | ≤ 100
15 | CN1CC(CC#N)(N2CCC(N[C@@H]3C[C@H]3c3ccccc3)CC2)C1 [Example 59, [1-methyl-3-(4-{[(1R,2S)-2-phenylcyclopropyl]amino}piperidin-1-yl)azetidin-3-yl]acetonitrile] | ≤ 100
16 | N#CCC1(N2CCC(N[C@@H]3C[C@H]3c3ccccc3)CC2)CNC1 [Example 60, [3-(4-{[(1R,2S)-2-phenylcyclopropyl]amino}piperidin-1-yl)azetidin-3-yl]acetonitrile] | ≤ 100
17 | N#CCC1(N2CCC(N[C@H]3C[C@@H]3c3ccccc3)CC2)CNC1 [Example 61, [3-(4-{[(1S,2R)-2-phenylcyclopropyl]amino}piperidin-1-yl)azetidin-3-yl]acetonitrile] | ≤ 100

Row | SMILES | IC50 [nM]
18 | CCS(=O)(=O)N1CC(CC#N)(N2CCC(N[C@@H]3C[C@H]3c3ccccc3)CC2)C1 [Example 62, [1-(ethylsulfonyl)-3-(4-{[(1R,2S)-2-phenylcyclopropyl]amino}piperidin-1-yl)azetidin-3-yl]acetonitrile] | ≤ 100
19 | CN(C)S(=O)(=O)N1CC(CC#N)(N2CCC(N[C@@H]3C[C@H]3c3ccccc3)CC2)C1 [Example 63, 3-(cyanomethyl)-N,N-dimethyl-3-(4-{[(1R,2S)-2-phenylcyclopropyl]amino}piperidin-1-yl)azetidine-1-sulfonamide] | ≤ 100
20 | CNS(=O)(=O)N1CC(CC#N)(N2CCC(N[C@@H]3C[C@H]3c3ccccc3)CC2)C1 [Example 64, 3-(cyanomethyl)-N-methyl-3-(4-{[(1R,2S)-2-phenylcyclopropyl]amino}piperidin-1-yl)azetidine-1-sulfonamide] | ≤ 100
21 | N#CCC1(N2CCC(N[C@@H]3C[C@H]3c3ccccc3)CC2)CN(S(N)(=O)=O)C1 [Example 65, 3-(cyanomethyl)-3-(4-{[(1R,2S)-2-phenylcyclopropyl]amino}piperidin-1-yl)azetidine-1-sulfonamide] | ≤ 100
22 | CN1CC(CC(=O)O)(N2CCC(N[C@@H]3C[C@H]3c3ccccc3)CC2)C1 [Example 66, [1-methyl-3-(4-{[(1R,2S)-2-phenylcyclopropyl]amino}piperidin-1-yl)azetidin-3-yl]acetic acid] | ≤ 100
23 | CCN1CC(CC(=O)O)(N2CCC(N[C@@H]3C[C@H]3c3ccccc3)CC2)C1 [Example 67, [1-ethyl-3-(4-{[(1R,2S)-2-phenylcyclopropyl]amino}piperidin-1-yl)azetidin-3-yl]acetic acid] | ≤ 100
24 | CN(C)C(=O)CC1(N2CCC(N[C@@H]3C[C@H]3c3ccccc3)CC2)CCC1 [Example 68, N,N-dimethyl-2-[1-(4-{[(1R,2S)-2-phenylcyclopropyl]amino}piperidin-1-yl)cyclobutyl]acetamide] | ≤ 100
25 | CNC(=O)CC1(N2CCC(N[C@@H]3C[C@H]3c3ccccc3)CC2)CCC1 [Example 69, N-methyl-2-[1-(4-{[(1R,2S)-2-phenylcyclopropyl]amino}piperidin-1-yl)cyclobutyl]acetamide] | ≤ 100
26 | CCS(=O)(=O)N1CC(CC(=O)N(C)C)(N2CCC(N[C@@H]3C[C@H]3c3ccccc3)CC2)C1 [Example 70, 2-[1-(ethylsulfonyl)-3-(4-{[(1R,2S)-2-phenylcyclopropyl]amino}piperidin-1-yl)azetidin-3-yl]-N,N-dimethylacetamide] | ≤ 100
27 | CCS(=O)(=O)N1CC(CC(=O)NC)(N2CCC(N[C@@H]3C[C@H]3c3ccccc3)CC2)C1 [Example 71, 2-[1-(ethylsulfonyl)-3-(4-{[(1R,2S)-2-phenylcyclopropyl]amino}piperidin-1-yl)azetidin-3-yl]-N-methylacetamide] | ≤ 100
28 | N#CCC1(N2CCC(N[C@@H]3C[C@H]3c3ccccc3)CC2)CN([C@H]2CC[C@H](O)CC2)C1 [Example 72, [1-(trans-4-hydroxycyclohexyl)-3-(4-{[(1R,2S)-2-phenylcyclopropyl]amino}piperidin-1-yl)azetidin-3-yl]acetonitrile] | ≤ 100
29 | N#CCC1(N2CCC(N[C@@H]3C[C@H]3c3ccccc3)CC2)CN([C@H]2CC[C@@H](O)CC2)C1 [Example 73, [1-(cis-4-hydroxycyclohexyl)-3-(4-{[(1R,2S)-2-phenylcyclopropyl]amino}piperidin-1-yl)azetidin-3-yl]acetonitrile] | ≤ 100
30 | N#CCC1(N2CCC(N[C@@H]3C[C@H]3c3ccccc3)CC2)CN(CCO)C1 [Example 74, [1-(2-hydroxyethyl)-3-(4-{[(1R,2S)-2-phenylcyclopropyl]amino}piperidin-1-yl)azetidin-3-yl]acetonitrile] | ≤ 100
31 | N#CCC1(N2CCC(N[C@@H]3C[C@H]3c3ccccc3)CC2)CN(C2CCOCC2)C1 [Example 75, [3-(4-{[(1R,2S)-2-phenylcyclopropyl]amino}piperidin-1-yl)-1-(tetrahydro-2H-pyran-4-yl)azetidin-3-yl]acetonitrile] | ≤ 100
32 | N#CCC1(N2CCC(N[C@@H]3C[C@H]3c3ccccc3)CC2)CN(C2CCOC2)C1 (stereo partly drawn) [Example 76, [3-(4-{[(1R,2S)-2-phenylcyclopropyl]amino}piperidin-1-yl)-1-(tetrahydrofuran-3-yl)azetidin-3-yl]acetonitrile] | ≤ 100
33 | CN(C)C(=O)CN1CC(CC#N)(N2CCC(N[C@@H]3C[C@H]3c3ccccc3)CC2)C1 [Example 77, 2-(3-(cyanomethyl)-3-(4-(((1R,2S)-2-phenylcyclopropyl)amino)piperidin-1-yl)azetidin-1-yl)-N,N-dimethylacetamide] | ≤ 100
34 | CNC(=O)CN1CC(CC#N)(N2CCC(N[C@@H]3C[C@H]3c3ccccc3)CC2)C1 [Example 78, 2-[3-(cyanomethyl)-3-(4-{[(1R,2S)-2-phenylcyclopropyl]amino}piperidin-1-yl)azetidin-1-yl]-N-methylacetamide] | ≤ 100
